Experimental data: paper PMC7876048, “Mutant-selective degradation by BRAF-targeting PROTACs” (Nature Communications, 2021)

Columns and labels:
BRAF (V600D) = target: T1, BRAF (V600D) (Homo sapiens, UniProt P15056, V600D); test: Radiolabeled kinase assay (Reaction Biology); format: biochemical
T1 construct: purchased Reaction Biology Corps
Experimental: (§1) Kinase assays were performed by Reaction Biology Corps by their protocol in duplicate using Km amounts of ATP calculated for each kinase.

BRAF (V600K) = target: T2, BRAF (V600K) (Homo sapiens, UniProt P15056, V600K); test: Radiolabeled kinase assay (Reaction Biology); format: biochemical
T2 construct: purchased Reaction Biology Corps
T2 sequence (P15056 whole entry V600K): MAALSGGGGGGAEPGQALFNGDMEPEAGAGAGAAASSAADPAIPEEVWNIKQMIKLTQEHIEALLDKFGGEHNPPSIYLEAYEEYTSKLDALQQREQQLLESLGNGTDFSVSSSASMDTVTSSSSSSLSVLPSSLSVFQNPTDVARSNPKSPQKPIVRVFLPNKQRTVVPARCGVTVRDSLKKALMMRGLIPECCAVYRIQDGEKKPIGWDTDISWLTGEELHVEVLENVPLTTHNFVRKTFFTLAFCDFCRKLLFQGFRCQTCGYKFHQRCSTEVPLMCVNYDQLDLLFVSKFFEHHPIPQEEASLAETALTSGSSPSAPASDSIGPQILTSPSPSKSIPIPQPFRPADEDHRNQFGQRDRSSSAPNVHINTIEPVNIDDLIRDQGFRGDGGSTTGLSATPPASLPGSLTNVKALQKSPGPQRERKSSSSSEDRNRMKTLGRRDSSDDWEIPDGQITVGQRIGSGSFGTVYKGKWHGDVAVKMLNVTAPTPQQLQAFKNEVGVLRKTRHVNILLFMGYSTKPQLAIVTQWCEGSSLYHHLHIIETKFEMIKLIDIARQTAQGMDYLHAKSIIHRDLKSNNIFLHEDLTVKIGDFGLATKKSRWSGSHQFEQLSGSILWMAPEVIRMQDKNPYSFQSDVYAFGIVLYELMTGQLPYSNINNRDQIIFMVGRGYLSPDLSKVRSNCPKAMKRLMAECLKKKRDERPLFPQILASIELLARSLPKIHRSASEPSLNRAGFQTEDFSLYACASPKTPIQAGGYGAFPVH
Experimental: as §1

CRAF = CRAF (Homo sapiens, UniProt P04049); test: Radiolabeled kinase assay (Reaction Biology); format: biochemical
CRAF, sequence (P04049 whole entry): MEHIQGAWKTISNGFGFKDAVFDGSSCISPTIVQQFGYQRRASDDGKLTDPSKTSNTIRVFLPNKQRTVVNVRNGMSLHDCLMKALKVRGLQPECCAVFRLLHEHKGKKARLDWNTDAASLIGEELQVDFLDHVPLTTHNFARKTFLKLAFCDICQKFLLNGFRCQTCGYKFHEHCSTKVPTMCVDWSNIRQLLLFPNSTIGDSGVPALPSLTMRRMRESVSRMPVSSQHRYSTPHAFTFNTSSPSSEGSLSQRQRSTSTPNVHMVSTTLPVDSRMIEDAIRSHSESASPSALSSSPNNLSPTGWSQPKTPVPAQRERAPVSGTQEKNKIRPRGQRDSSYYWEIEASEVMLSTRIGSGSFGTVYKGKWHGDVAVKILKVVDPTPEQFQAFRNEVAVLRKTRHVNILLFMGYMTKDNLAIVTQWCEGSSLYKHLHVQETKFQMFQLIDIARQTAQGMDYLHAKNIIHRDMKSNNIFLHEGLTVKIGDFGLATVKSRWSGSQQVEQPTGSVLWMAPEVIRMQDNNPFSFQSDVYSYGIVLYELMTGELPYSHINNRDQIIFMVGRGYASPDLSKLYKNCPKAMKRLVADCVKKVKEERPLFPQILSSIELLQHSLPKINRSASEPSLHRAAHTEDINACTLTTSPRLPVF
Experimental: as §1

BRAF (L597V) = target: T3, BRAF (L597V) (Homo sapiens, UniProt P15056, L597V); test: Radiolabeled kinase assay (Reaction Biology); format: biochemical
T3 construct: purchased Reaction Biology Corps
T3 sequence (P15056 whole entry L597V): as the sequence (P15056 whole entry V600K) above, with L597V, K600V counted along it
Experimental: as §1

BRAF (G469A) = target: T4, BRAF (G469A) (Homo sapiens, UniProt P15056, G469A); test: Radiolabeled kinase assay (Reaction Biology); format: biochemical
T4 construct: purchased Reaction Biology Corps
T4 sequence (P15056 whole entry G469A): as the sequence (P15056 whole entry V600K) above, with G469A, K600V counted along it
Experimental: as §1

BRAF (K601E) = target: T5, BRAF (K601E) (Homo sapiens, UniProt P15056, K601E); test: Radiolabeled kinase assay (Reaction Biology); format: biochemical
T5 construct: purchased Reaction Biology Corps
T5 sequence (P15056 whole entry K601E): as the sequence (P15056 whole entry V600K) above, with K600V, K601E counted along it
Experimental: as §1

[1] = target: T6, NanoLuc-BRAF^V600E : HaloTag-VHL (HEK293T cells) (Homo sapiens, UniProt P15056+P40337, V600E); test: NanoBRET ternary complex assay; format: cell-based; settings: cells expressing BRAF^V600E, 3 h
T6 construct: Full-length BRAF (WT and V600E) was cloned into the pNLF1-C [CMV/Hygro] vector; host or cells: HEK 293 T, transient co-transfection
T6 sequence (P15056 whole entry V600E): as the sequence (P15056 whole entry V600K) above, with K600E counted along it
T6 sequence (P40337 whole entry): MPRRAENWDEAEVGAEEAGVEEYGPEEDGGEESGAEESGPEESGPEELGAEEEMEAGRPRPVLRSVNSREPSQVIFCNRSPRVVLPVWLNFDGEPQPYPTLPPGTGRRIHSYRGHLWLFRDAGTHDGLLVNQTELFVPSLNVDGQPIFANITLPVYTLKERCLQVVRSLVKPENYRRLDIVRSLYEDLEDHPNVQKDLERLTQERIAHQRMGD
T6 sequence (Q15369 whole entry partner): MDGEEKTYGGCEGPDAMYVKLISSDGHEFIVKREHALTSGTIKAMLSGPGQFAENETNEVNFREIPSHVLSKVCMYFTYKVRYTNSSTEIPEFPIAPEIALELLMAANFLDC
T6 sequence (Q15370 whole entry partner): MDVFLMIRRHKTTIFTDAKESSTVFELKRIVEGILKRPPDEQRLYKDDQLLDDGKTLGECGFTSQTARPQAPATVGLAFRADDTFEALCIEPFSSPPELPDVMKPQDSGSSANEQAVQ
Experimental: (§2) Full-length BRAF (WT and V600E) was cloned into the pNLF1-C [CMV/Hygro] vector. HEK 293 T cells were seeded into 6 well dishes (~75% confluent) and co-transfected with HaloTag-VHL (Promega; N273A) and C-terminal nanoLUC-tagged BRAF. Transfection was performed using a ratio of 1:2 DNA to Lipofectamine 2000. After 24 h, 1 × 10^4 cells were seeded into white 96 well plates (Costar Cat# 3610) in Opti-MEM™ I Reduced Serum Medium supplemented with 4% FBS and […] HaloTag NanoBRET 618 ligand or DMSO. The next day, the cells were pre-treated with 2 μM MG-132 for 1 h then treated with indicated amount of drug for 3 h. 6X NanoBRET Nano-Glo Substrate in Opti-MEM was then added to each well and the plate was read using a Perkin Elmer Envision. Dual filtered luminescence was measured with a 430 nm (donor, […]) and a 615 nm filter (acceptor, […]). Background corrected (cells without HaloTag 618 ligand) nanoBRET ratios were calculated to determine intracellular ternary complex formation.

[2] = target: T7, NanoLuc-BRAF^WT : HaloTag-VHL (HEK293T cells) (Homo sapiens, UniProt P15056); test: NanoBRET ternary complex assay; format: cell-based; settings: cells expressing BRAF^WT, concentrations as high as 10 μM, 3 h
T7 construct: Full-length BRAF (WT and V600E) was cloned into the pNLF1-C [CMV/Hygro] vector; host or cells: HEK 293 T, transient co-transfection
Experimental: as §2

[3] = target: T8, BRAF^G466V (CAL-12-T cells, homozygous, Class 3) (Homo sapiens, UniProt P15056, G466V); test: BRAF degradation by immunoblot in CAL-12-T cells; format: cell-based
T8 construct: endogenous in cells; host or cells: CAL-12-T
T8 sequence (P15056 whole entry G466V): as the sequence (P15056 whole entry V600K) above, with G466V, K600V counted along it
Experimental: (§3) Cells were plated in 6 well dishes (5 × 10^5–8 × 10^5 cells) and allowed to attach overnight. […] The plates were then placed on ice and washed 1x with chilled PBS and lysed in buffer containing 25 mM Tris-HCl [pH 7.4], 0.25% sodium deoxycholate, 150 mM NaCl, 1% Triton X-100, supplemented with protease inhibitors (1x Roche protease inhibitor cocktail) and phosphatase inhibitors (10 mM NaF, 1 mM Na3OV4, and 20 mM β-glycerophosphate). Lysates were then cleared at 21,000 g for 10 min at 4 °C. Protein concentrations of the supernatants were then quantified using a Pierce BCA Protein Assay. 12–40 µg of protein were separated using a gradient (4–20%) Criterion TGX precast gel and transferred unto a nitrocellulose membrane. The membranes were then blocked in 5% non-fat milk in TBST (Tris-buffered Saline with Tween 20) for 1 h before probing with the indicated primary antibody overnight. Membranes were imaged using Bio-Rad Image Lab software using ECL prime detection reagent (GE Healthcare, RPN2232 or ThermoScientific, 34095).
(§4) Western blot data was quantified by using the band feature in Image Lab, and values were averaged and analyzed in GraphPad Prism. DC50 and DMAX values were fitted using a three parameter [inhibitor] versus response and reported directly from the Prism output. Mean ± SD and unpaired t-tests were performed in GraphPad Prism.

[4] = target: T9, BRAF^V600E (A375 xenograft) (Homo sapiens, UniProt P15056, V600E); test: A375 xenograft study, BRAF degradation in tumor; format: in vivo, mice; settings: 50 mg/kg or 150 mg/kg i.p. once a day for 3 days, 8 h after final dose
T9 construct: 5 million A375 cells were subcutaneously implanted in female nu/nu mice; endogenous in cells; host or cells: A375 cells as subcutaneous xenograft tumour in female nu/nu mice
T9 sequence (P15056 whole entry V600E): as the sequence (P15056 whole entry V600K) above, with K600E counted along it
Experimental: 5 million A375 cells were subcutaneously implanted in female nu/nu mice. […] Mice were sacrificed 8 h after the final dose. Tissues were harvested, flash frozen, and lysed in 1X cell lysis buffer (Cell Signaling #9803) supplemented with protease and phosphatase inhibitors. Harvested tumors were disrupted using metal beads in a Tissuelyser. Homogenates were normalized for protein content and analyzed using SDS-PAGE and Western blotting. All studies were performed in compliance with institutional guidelines under an IACUC approved protocol.

[5] = target: T10, BRAF-p61^V600E (HCC-364 vr1 cells) (Homo sapiens, UniProt P15056+P40337, DEL169-380/V600E); test: BRAF degradation by immunoblot in HCC-364 vr1 cells; format: cell-based
T10 construct: endogenous in cells; host or cells: SK-MEL-239 C4; HCC-364 vr1
T10 sequence (P15056 with tags, fused parts or gaps DEL169-380/V600E): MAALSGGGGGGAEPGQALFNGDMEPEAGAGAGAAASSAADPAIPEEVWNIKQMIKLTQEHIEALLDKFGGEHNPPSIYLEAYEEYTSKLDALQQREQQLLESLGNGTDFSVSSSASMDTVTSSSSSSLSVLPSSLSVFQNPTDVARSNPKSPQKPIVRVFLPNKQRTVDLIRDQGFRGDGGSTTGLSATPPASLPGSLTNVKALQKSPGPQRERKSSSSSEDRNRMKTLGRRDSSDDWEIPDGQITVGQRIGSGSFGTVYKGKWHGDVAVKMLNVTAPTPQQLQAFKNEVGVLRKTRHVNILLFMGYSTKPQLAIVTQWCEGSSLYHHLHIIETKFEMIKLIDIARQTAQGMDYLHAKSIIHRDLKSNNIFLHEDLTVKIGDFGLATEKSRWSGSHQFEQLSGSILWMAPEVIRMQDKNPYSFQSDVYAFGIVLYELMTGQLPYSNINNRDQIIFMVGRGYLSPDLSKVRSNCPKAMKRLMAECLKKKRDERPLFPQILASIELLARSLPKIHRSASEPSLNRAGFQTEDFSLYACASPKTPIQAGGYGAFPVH
T10 sequence (P40337 whole entry, stated change not applied): as the sequence (P40337 whole entry) above
T10 sequence (Q15370 whole entry partner): as the sequence (Q15370 whole entry partner) above
T10 sequence (Q15369 whole entry partner): as the sequence (Q15369 whole entry partner) above
Experimental: as §3, §4

[6] = tested on: SK-MEL-239 C4 cells (BRAF^WT/BRAF-p61^V600E); test: Cell proliferation (MTS) assay; format: cell-based; settings: 5 days
BRAF V600E [7] = target: T11, BRAF V600E (Homo sapiens, UniProt P15056, V600E); test: Elisa kinase inhibition assay (Carna Biosciences); format: biochemical; set-up: purchased Carna Biosciences; settings: Km ATP, duplicate
T11 sequence (P15056 whole entry V600E): as the sequence (P15056 whole entry V600K) above, with K600E counted along it
Experimental: Kinase assays were performed by Carna Biosciences by their protocol in duplicate using Km amounts of ATP calculated for each kinase.

[8] = target: T12, BRAF^G466V (H1666 cells, heterozygous, Class 3) (Homo sapiens, UniProt P15056, G466V); test: BRAF degradation by immunoblot in H1666 cells; format: cell-based
T12 construct: endogenous in cells; host or cells: H1666
T12 sequence (P15056 2-766 G466V): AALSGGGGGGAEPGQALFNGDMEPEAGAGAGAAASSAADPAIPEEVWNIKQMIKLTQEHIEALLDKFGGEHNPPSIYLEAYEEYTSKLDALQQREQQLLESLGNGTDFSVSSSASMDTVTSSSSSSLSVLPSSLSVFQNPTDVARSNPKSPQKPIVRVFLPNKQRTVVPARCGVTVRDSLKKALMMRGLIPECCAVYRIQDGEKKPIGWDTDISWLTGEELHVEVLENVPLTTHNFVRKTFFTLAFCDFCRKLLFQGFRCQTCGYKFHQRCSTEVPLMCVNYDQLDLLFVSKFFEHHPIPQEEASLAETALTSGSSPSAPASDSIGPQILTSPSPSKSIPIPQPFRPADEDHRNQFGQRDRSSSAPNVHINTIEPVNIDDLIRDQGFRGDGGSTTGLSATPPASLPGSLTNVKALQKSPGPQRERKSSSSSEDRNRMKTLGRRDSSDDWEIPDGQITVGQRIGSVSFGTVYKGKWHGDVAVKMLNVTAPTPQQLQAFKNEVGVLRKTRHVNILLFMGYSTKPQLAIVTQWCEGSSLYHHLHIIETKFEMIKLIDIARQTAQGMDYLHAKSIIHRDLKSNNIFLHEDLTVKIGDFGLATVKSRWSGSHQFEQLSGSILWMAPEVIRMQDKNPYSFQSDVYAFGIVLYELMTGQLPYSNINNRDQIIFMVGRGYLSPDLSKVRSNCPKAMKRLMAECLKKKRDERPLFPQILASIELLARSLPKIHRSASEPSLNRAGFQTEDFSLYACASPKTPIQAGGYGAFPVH
Experimental: as §3, §4

BRAF V600E [9] = target: T11, BRAF V600E; test: Radiolabeled kinase assay (Reaction Biology); format: biochemical; set-up: purchased Reaction Biology Corps
Experimental: as §1

T1 sequence (P15056 whole entry V600D): as the sequence (P15056 whole entry V600K) above, with K600D counted along it

IC50 (BRAF (V600D)): 2.68 nM
IC50 (BRAF (V600K)): 0.49 nM
IC50 (CRAF): 37.6 nM
IC50 (BRAF (L597V)): 16 nM
IC50 (BRAF (G469A)): 0.98 nM
IC50 (BRAF (K601E)): 7.84 nM
BRET signal [1]: an increase in BRET signal
BRET signal [2]: no observed increase
DC50 [3]: 23 nM
Dmax [3]: > 90%
DMAX, degradation of BRAF in the xenograft [4]: > 90%
DC50 [5]: 147 nM
Dmax ([5]; HCC364): > 90%
EC50 ([6]; 120 h, read-out: EC50, cell growth): 218 nM
IC50 (BRAF V600E [7]): 24.4 nM
DC50 [8]: 29 nM
Dmax ([8]; NCI-H1666): > 80%
IC50 (BRAF V600E [9]): 1.87 nM
Structure (SMILES): CCCS(=O)(=O)Nc1ccc(F)c(C(=O)c2c[nH]c3ncc(-c4ccc(N5CCN(CC(=O)NC(C(=O)N6CC(O)CC6C(=O)NCc6ccc(-c7scnc7C)cc6)C(C)(C)C)CC5)cc4)cc23)c1F (stereo not shown) [SJF-0628]
decrease in cell growth [6]: ~ 80%
